In patent US20120270935A1, “FORMULATIONS” (priority 2009, published 2012):
Values after ≈ are worked out from the molar mass of the structure shown. Read-outs that look alike come from different tables or passages of the source.

Columns and labels:
P. acnes NCTC 737 [1] = assay: Minimum inhibitory concentration (MIC) assay, broth microtitre; format: cell-based, Propionibacterium acnes; conditions: compound in DMSO, triplicate
Description: (§1) The first test micro-organism used was Propionibacterium acnes NCTC 737. This is a propionibacterial strain and is the type strain of the […]; it is fully susceptible to antibiotics.
(§2) The propionibacteria were cultured and maintained on Wilkins-Chalgren Anaerobe Medium (agar and broth) at pH 6.0; all cultures were incubated anaerobically at 37° C. for 72 hours.
This is a standard international method for quantitatively assessing the antimicrobial activity of a compound in a liquid medium. The method used a sterile 96-well microtitre plate, capable of holding about 200 μl of liquid per well. The wells contained liquid culture medium and ranges of decreasing concentrations of the relevant test compound in doubling dilutions (eg 1000, 500, 250, 125 . . . μg/ml, etc. down to 0.49 μg/ml). The culture medium was as described above.
The wells were inoculated with a liquid suspension of freshly grown micro-organism and incubated under the conditions described above. After incubation, the microtitre plate was examined visually (with the aid of a light box) for cloudiness in each well, which would indicate microbial growth. The MIC value was recorded as the lowest concentration of test compound required to inhibit microbial growth, ie the lowest concentration for which the liquid in the well remained clear.
The assays included both negative (culture medium with no micro-organisms) and positive (culture medium plus diluting solvent plus micro-organism) controls.
DDA assays, as described above, were carried out using as the test formulation the gel prepared in Example 2B above. Also tested was the Example 2B gel minus the Klucel™ thickener, which was also subjected to MIC and MBC assays. For the DDAs, which were performed in triplicate, 100 μl of the relevant formulation was loaded onto each disc, and zones of inhibition were recorded after 3 days' anaerobic incubation at 37° C. The MIC and MBC tests were performed in duplicate and the results recorded after 3 days and 7 days respectively, post-subculture onto drug-free medium. […]

P. acnes NCTC 737 [2] = assay: Minimum bactericidal concentration (MBC) assay; format: cell-based, Propionibacterium acnes; conditions: compound in DMSO, triplicate
Description: as §1, §2
This assay, normally carried out after an MIC assay, determines the minimum concentration of a compound that is lethal to the micro-organism being tested.
These samples were then individually sub-cultured on antibiotic-free agar medium, under the incubation conditions described above. Following incubation they were examined visually for microbial growth.
DDA assays, as described above, were carried out using as the test formulation the gel prepared in Example 2B above. Also tested was the Example 2B gel minus the Klucel™ thickener, which was also subjected to MIC and MBC assays. For the DDAs, which were performed in triplicate, 100 μl of the relevant formulation was loaded onto each disc, and zones of inhibition were recorded after 3 days' anaerobic incubation at 37° C. The MIC and MBC tests were performed in duplicate and the results recorded after 3 days and 7 days respectively, post-subculture onto drug-free medium.
(§3) The compounds copper (II) usnate (Just for Today Ltd), sodium usnate (Yick-Vic Chemicals) and usnic acid (Sigma-Aldrich) were tested against P. acnes NCTC 737, using MIC, MBC and DDA assays as described above. For copper usnate and usnic acid, supplemented DDA assays were also carried out. DMSO was used as the solvent for all three test compounds. For the DDAs, 200 μg of the relevant test compound was loaded onto each disc. The MIC and MBC assays were conducted in triplicate, as were the DDAs for copper usnate.

P. acnes NCTC 737 [3] = assay: Supplemented disc diffusion assay (lipid or salt); format: cell-based, Propionibacterium acnes; conditions: 200 μg compound per disc; for zone of inhibition at 200 µg/disc: Cutibacterium acnes, NCTC737
Description: A sterile paper disc was impregnated with a sample of the test compound in a suitable solvent and 30 minutes allowed for the solvents to evaporate (where possible). The disc was then placed on an agar plate onto which the test micro-organism had been inoculated. The plate was then incubated under the conditions described above, following which it was examined visually for signs of microbial growth. If the test compound had antimicrobial activity, a circular zone of no growth would be obtained around the disc. The diameter of this zone of “inhibition” was measured using a ProtoCOL™ automated zone sizer (Synbiosis, Cambridge, UK). In general, a greater diameter and/or area of the zone of inhibition indicates a greater antimicrobial activity in the relevant test compound, although other factors such as test compound mobility through the agar gel may also influence the result.
The DDA test may be carried out using an agar gel supplemented with lipid and/or salt to simulate some of the major components present in human skin and to assess whether these substances might affect the antimicrobial activity observed for the test compound. Performance under these conditions can provide a more reliable indication of activity on topical application. […]
as §3

C. striatum NCTC 764 = assay: Disc diffusion assay (DDA); format: cell-based, Corynebacterium striatum; conditions: Corynebacterium striatum, NCTC764; 200 μg per disc; single plates; read-out: DDA zone diameter
From the text: (§4) (a) staphylococci. The Staphylococcus aureus strain used was ATCC 29213. S. aureus and other staphylococci are common causes of a wide range of skin, skin structure and wound infections; S. aureus is also known to exacerbate eczema. The ATCC 29213 strain is known to be susceptible to beta-lactam antibiotics such as methicillin. The Staphylococcus epidermidis strain used was NCTC 11047. Staph. epidermidis forms part of the resident flora of skin and is an opportunistic pathogen which can cause biofilms to grow for instance on plastic surgical implants such as catheters. Unless otherwise stated, the staphylococci were cultured and maintained on Mueller-Hinton Medium (agar and broth) at pH 7.2; cultures were incubated aerobically at 37° C. for 19-20 hours, at pH 7 (±0.2). (b) C. striatum NCTC 764. Corynebacterium striatum is closely related to organisms (aerobic diphtheroids of the genus Corynebacterium) that cause body odour. It was cultured and maintained on Mueller-Hinton medium (agar and broth). All cultures were incubated aerobically at 37° C. for 72 hours, at pH 7 (±0.2). (c) streptococci. […]
(§5) A sterile paper disc was impregnated with a sample of the test compound in a suitable solvent and 30 minutes allowed for the solvents to evaporate (where possible). […] The diameter of this zone of “inhibition” was measured using a ProtoCOL™ automated zone sizer (Synbiosis, Cambridge, UK). […]

[4] = system: S. epidermidis NCTC 11047; assay: MBC assay; format: cell-based, Staphylococcus epidermidis; conditions: Mueller-Hinton broth pH 7.0
From the text: as §4, with “(±0.2).” for “(±0.2). (c) streptococci.”
(§6) Example 8 was repeated (except for the supplemented DDA assays), using S. aureus ATCC 29213 as the test organism. […] In the DDA assays, 200 μg is of each compound was loaded onto each disc: the culture medium was Mueller-Hinton agar at pH 7.0, and results were recorded after overnight incubation at 37° C. in air. […]

[5] = system: S. epidermidis NCTC 11047; assay: Disc diffusion assay (DDA); format: cell-based, Staphylococcus epidermidis; conditions: 200 μg per disc; Mueller-Hinton agar pH 7.0; overnight at 37° C. in air
From the text: as §4, with “764.” for “764. Corynebacterium striatum is closely related to organisms (aerobic diphtheroids of the genus Corynebacterium) that cause body odour. It was cultured and maintained on Mueller-Hinton medium (agar and broth). All cultures were incubated aerobically at 37° C. for 72 hours, at pH 7 (±0.2). (c) streptococci.”
as §5, §6

Compound | MIC (P. acnes NCTC 737 [1]; Cutibacterium acnes, NCTC737, read-out: MIC) | MBC (P. acnes NCTC 737 [2]; Cutibacterium acnes, NCTC737, read-out: MBC) | zone of inhibition at 200 µg/disc (P. acnes NCTC 737 [3]; medium +1% NaCl, read-out: DDA zone diameter, +1% NaCl) | zone of inhibition at 200 µg/disc (P. acnes NCTC 737 [3]; medium +1% triolein, read-out: DDA zone diameter, +1% triolein) | zone of inhibition at 200 µg/disc (C. striatum NCTC 764) | MIC (P. acnes NCTC 737 [1]) | MBC (P. acnes NCTC 737 [2]) | DDA zone diameter, +1% NaCl (P. acnes NCTC 737 [3]; medium +1% NaCl) | DDA zone diameter, +1% triolein (P. acnes NCTC 737 [3]; medium +1% triolein) | MBC [4] | DDA zone diameter [5]
CC(=O)c1c(O)c(C)c(O)c2c1OC1=CC(=O)C(C(C)=O)C(=O)C12C (centres unmarked) [Usnic acid, 2,6-diacetyl-7,9-dihydroxy-8,9b-dimethyl-1,3(2H,9bh)-dibenzofurandione] | 0.49 µg/mL (≈ 1.42 µM) | 31.2 µg/mL (≈ 90.8 µM) | 29.8 mm | 10.9 mm | 20 mm | – | – | – | – | – | –
CC(=O)c1c([O-])c(C)c([O-])c2c1OC1=CC(=O)C(C(C)=O)C(=O)C12C.[Cu+2] (centres unmarked) [Copper usnate, copper (II) usnate] | – | – | – | – | – | 0.49 µg/mL | 1.95 µg/mL | 42.9 ± 0.4 mm | 27.4 ± 1.5 mm | 62.5 µg/mL | 25.7 ± 0.6 mm
